Measurements from ChEMBL document CHEMBL1201862, “PubChem BioAssay data set” (2004).
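Exposure lasted 48 hours, with cells grown in 96-well plates and compounds tested at five concentrations. The concentration for 50% growth inhibition is given as GI50.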 Activity calls are given as the source filed them. Cut-off read from the data, not from the text of the source: active = GI50 up to about 1.1 µM and inactive = higher.

Assays:
Assay in all cases: DTP human tumour cell line panel, 48 h
SNB-75 = system: SNB-75
SK-MEL-2 = system: SK-MEL-2
KM12 = system: KM12
SF-295 = system: SF-295
HOP-92 = system: HOP-92
MCF7 = system: MCF7
CCRF-CEM = system: CCRF-CEM
A498 = system: A498
SNB-19 = system: SNB-19
MDA-MB-435 = system: MDA-MB-435
Malme-3M = system: Malme-3M
HCT-116 = system: HCT-116
786-0 = system: 786-0
SF-539 = system: SF-539
SN12C = system: SN12C
HCC 2998 = system: HCC 2998
UO-31 = system: UO-31
RXF 393 = system: RXF 393
OVCAR-3 = system: OVCAR-3

Compound | GI50 (SNB-75) | GI50 (SK-MEL-2) | GI50 (KM12) | GI50 (SF-295) | GI50 (HOP-92) | GI50 (MCF7) | GI50 (CCRF-CEM) | GI50 (A498) | GI50 (SNB-19) | GI50 (MDA-MB-435) | GI50 (Malme-3M) | GI50 (HCT-116) | GI50 (786-0) | GI50 (SF-539) | GI50 (SN12C) | GI50 (HCC 2998) | GI50 (UO-31) | GI50 (RXF 393) | GI50 (OVCAR-3)
CC1(C)CCC[C@](C)([C@H]2CC[C@]3(C)[C@@H]2[C@H](O)C[C@@H]2[C@@]4(C)CC[C@H](O)C(C)(C)[C@@H]4[C@H](O)C[C@]23C)O1 | 10.7 µM (inactive) | 13 µM (inactive) | 11.1 µM (inactive) | 10.5 µM (inactive) | 13.6 µM (inactive) | 9.73 µM (inactive) | 3.09 µM (inactive) | 12.8 µM (inactive) | 11.5 µM (inactive) | 12.2 µM (inactive) | 19.1 µM (inactive) | 15.9 µM (inactive) | 19 µM (inactive) | 11.7 µM (inactive) | 14.3 µM (inactive) | 13.9 µM (inactive) | 11.7 µM (inactive) | – | –
C=CCSC1=N/C(=C\c2ccc(Cl)cc2)C(=O)N1CC=C | – | 27.7 µM (inactive) | 24.9 µM (inactive) | 34.8 µM (inactive) | 22.1 µM (inactive) | 18.9 µM (inactive) | 21.4 µM (inactive) | 13.6 µM (inactive) | 91.4 µM (inactive) | 28.8 µM (inactive) | – | 25.1 µM (inactive) | 35.7 µM (inactive) | 28.8 µM (inactive) | 34.3 µM (inactive) | 34.8 µM (inactive) | 34.7 µM (inactive) | 19.8 µM (inactive) | 43.7 µM (inactive)
O=C1C(c2c(O)[nH]c3ccc(Cl)cc23)=Nc2ccccc21 | 4.99 µM (inactive) | 5.55 µM (inactive) | 3.08 µM (inactive) | 10.4 µM (inactive) | 8.02 µM (inactive) | 12.2 µM (inactive) | 27.4 µM (inactive) | 5.01 µM (inactive) | 10.3 µM (inactive) | 4.3 µM (inactive) | 5.68 µM (inactive) | 1.98 µM (inactive) | 1.99 µM (inactive) | 4.65 µM (inactive) | 17 µM (inactive) | – | – | 2.49 µM (inactive) | 3.66 µM (inactive)
COC(=O)[C@H]1CO[C@@H](C(C)(C)C)N1C(=O)N1C=CC(=O)C[C@@H]1C | > 100 µM (inactive) | > 100 µM (inactive) | > 100 µM (inactive) | > 100 µM (inactive) | > 100 µM (inactive) | > 100 µM (inactive) | > 100 µM (inactive) | > 100 µM (inactive) | – | > 100 µM (inactive) | > 100 µM (inactive) | > 100 µM (inactive) | > 100 µM (inactive) | – | > 100 µM (inactive) | – | > 100 µM (inactive) | > 100 µM (inactive) | > 100 µM (inactive)
c1ccc(CCN2CCCCCC2)nc1 | – | > 100 µM (inactive) | > 100 µM (inactive) | > 100 µM (inactive) | > 100 µM (inactive) | > 100 µM (inactive) | > 100 µM (inactive) | > 100 µM (inactive) | > 100 µM (inactive) | > 100 µM (inactive) | > 100 µM (inactive) | > 100 µM (inactive) | > 100 µM (inactive) | – | > 100 µM (inactive) | – | > 100 µM (inactive) | > 100 µM (inactive) | > 100 µM (inactive)
COc1ccccc1C(=O)N(C)c1ccc(Cl)c(C(=O)OC(C)C)c1 | 30.7 µM (inactive) | 61.5 µM (inactive) | 23.3 µM (inactive) | 30.6 µM (inactive) | 48.2 µM (inactive) | 62.4 µM (inactive) | > 100 µM (inactive) | 70.6 µM (inactive) | > 100 µM (inactive) | 29.4 µM (inactive) | > 100 µM (inactive) | 40.3 µM (inactive) | 36.2 µM (inactive) | > 100 µM (inactive) | > 100 µM (inactive) | 27 µM (inactive) | 28.7 µM (inactive) | – | 71.3 µM (inactive)
N=c1c2ccccc2nc2oc3ccccc3n12 | – | 37.5 µM (inactive) | – | > 100 µM (inactive) | 26.5 µM (inactive) | 45.1 µM (inactive) | 55 µM (inactive) | 38.7 µM (inactive) | 25.5 µM (inactive) | > 100 µM (inactive) | 41.1 µM (inactive) | 36.6 µM (inactive) | > 10 µM (inactive) | 37.2 µM (inactive) | > 100 µM (inactive) | > 100 µM (inactive) | > 100 µM (inactive) | – | > 10 µM (inactive)
N=C(CSSCC(=N)NCC12CC3CC(CC(C3)C1)C2)NCC12CC3CC(CC(C3)C1)C2 | 20.8 µM (inactive) | 22.3 µM (inactive) | 14.1 µM (inactive) | 14.2 µM (inactive) | 16.3 µM (inactive) | 29.7 µM (inactive) | – | 25.5 µM (inactive) | 19.2 µM (inactive) | 13.8 µM (inactive) | 16.8 µM (inactive) | 22.4 µM (inactive) | 29.9 µM (inactive) | 17.7 µM (inactive) | 15.7 µM (inactive) | – | 18.2 µM (inactive) | > 100 µM (inactive) | 16.1 µM (inactive)
Cc1nnc(N)nc1/C=C\c1ccc(Cl)cc1Cl | – | 17 µM (inactive) | 18.6 µM (inactive) | 23.4 µM (inactive) | 39.2 µM (inactive) | 32.8 µM (inactive) | 27.5 µM (inactive) | > 100 µM (inactive) | 30.2 µM (inactive) | 33.5 µM (inactive) | 23.8 µM (inactive) | 26.9 µM (inactive) | 40.7 µM (inactive) | – | 61.5 µM (inactive) | 21.6 µM (inactive) | 54.2 µM (inactive) | 39.7 µM (inactive) | –
Cc1ccc2c(c1C)-c1c(ccc(C)c1C)C(=O)C2=O | – | 1.19 µM (inactive) | 0.165 µM (active) | 0.59 µM (active) | 0.374 µM (active) | 0.21 µM (active) | 0.238 µM (active) | 1.87 µM (inactive) | 0.881 µM (active) | 0.21 µM (active) | 0.598 µM (active) | 0.361 µM (active) | 0.358 µM (active) | 0.21 µM (active) | 0.817 µM (active) | 3.7 µM (inactive) | 0.625 µM (active) | 0.337 µM (active) | 0.296 µM (active)
C[C@]12[C@@H]3CC[C@H]1[C@@H](OC(=O)Nc1cc([N+](=O)[O-])cc([N+](=O)[O-])c1)C(=O)N2CC3 | 19.6 µM (inactive) | > 100 µM (inactive) | > 100 µM (inactive) | > 100 µM (inactive) | > 100 µM (inactive) | > 100 µM (inactive) | > 100 µM (inactive) | > 100 µM (inactive) | > 100 µM (inactive) | > 100 µM (inactive) | > 100 µM (inactive) | > 100 µM (inactive) | > 100 µM (inactive) | – | > 100 µM (inactive) | > 100 µM (inactive) | > 100 µM (inactive) | > 100 µM (inactive) | –
CCCOC(=O)NC(C)C(=O)NC(CCC(=O)NC(CCCC(N)C(=O)O)C(=O)NC(C)C(=O)O)C(=O)O (stereo unspecified) | – | 54.2 µM (inactive) | 14.4 µM (inactive) | 16.6 µM (inactive) | 29.5 µM (inactive) | 39.2 µM (inactive) | 19.2 µM (inactive) | > 100 µM (inactive) | 27.7 µM (inactive) | 56.8 µM (inactive) | – | 34.4 µM (inactive) | 30.2 µM (inactive) | 14.8 µM (inactive) | 50.8 µM (inactive) | 17.1 µM (inactive) | 41.8 µM (inactive) | – | 80.9 µM (inactive)
